Assay [1] relates to CK1δ ΔC. In words: NMR kinase assay monitoring priming phosphorylation at S662. The format is biochemical, human. The following applies: 3-hr real-time NMR kinase assay, 0.2 mM 15N-FASP, 2.5 mM ATP, 1 µM CK1δ ΔC, 25°C, SOFAST HMQC.
The target of assay [2] is T1, Human CK1δ catalytic domain (residues 1–294) (human, UniProt P48730 1-294).
T1 sequence: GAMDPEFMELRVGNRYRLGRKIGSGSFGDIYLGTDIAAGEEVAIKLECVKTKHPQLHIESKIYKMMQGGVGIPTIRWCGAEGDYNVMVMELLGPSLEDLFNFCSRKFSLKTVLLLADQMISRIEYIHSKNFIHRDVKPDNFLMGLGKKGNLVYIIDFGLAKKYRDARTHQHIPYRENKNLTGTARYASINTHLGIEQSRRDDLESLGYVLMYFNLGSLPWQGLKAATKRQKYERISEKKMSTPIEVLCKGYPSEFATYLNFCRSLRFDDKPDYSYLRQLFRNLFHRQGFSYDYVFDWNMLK
In words: crystal structure.

Non-standard residues stand in square brackets, D forms with d. No end group written: not given here. pS = N[C@@H](COP(=O)(O)O)C(=O)O

With “WT FASP: wild-type recombinant FASP peptide (residues 645–687) from human PER2 (GAMDPEFWRKKKTGVGTHLTSLALPGKAESVASLTSQCSYSSTIVHVGDKKPQPE; left off: His-NusA, N-terminal, cleaved)”, the “fraction of primed FASP (pS662), completion of priming” value in assay [1] is recorded as “approximately 50%”.

B1: human PER2 4pFASP peptide (peptide)
peptide: GKAE[pS]VA[pS]LT[pS]QC[pS]YA
Consider B1, for which, in assay [2], the binding result is recorded as “binds”.

(Values after article PMC11684667 (Molecular cell, 2023).)
